Measured values as given in patent US20140163073A1, “Small Molecule Inhibitors of P-type ATPases” (priority 2012, published 2014).
Values after ≈ are worked out from the molar mass of the structure shown. “Also recorded” adds a separate entry of the source. Where two headings read alike, the source gives them in different places. Each block holds one molecule with its values, some of them ahead of it.

Tests used:
[1] = system: melanocytes; assay: Inhibition of melanogenesis / pigment development in cultured melanocytes; assay type: cell-based
[2] = system: normal human epidermal melanocytes; assay: Melanogenesis and melanin content in normal human epidermal melanocytes; assay type: cell-based
Text: (§1) PPIs had been known to function in the parietal cells to block the production of stomach acid by binding to at least one cysteine residue of the gastric proton pump, ATP4A, to thus effect long-lasting, semi-irreversible inactivation of the ATP4A. In order to bind to the ATPase, the PPI must be in its active form, and the PPI requires an acidic environment to undergo rearrangement to its active form.

[3] = system: reconstructed human skin model; assay: Reconstructed human skin model; assay type: cell-based
Text: as §1

[4] = system: tyrosinase, MITF, TRP-2, Pme117 mRNA; assay: mRNA levels of melanogenesis related proteins by RT-PCR in B16F10 mouse melanoma cells; assay type: cell-based
Text: The inventors next examined the effect of omeprazole on tyrosinase, the principal, rate-limiting enzyme in melanin synthesis.

[5] = pH below 0.8; cited from earlier work
[6] = biological target: T1, ATP7A (Mus musculus, UniProt Q64430); assay: Cu+2-stimulated ATP7A trafficking, co-localization assay; assay type: cell-based; conditions: B16F10 cells
T1 construct: endogenous in cells; host or cells: B16F10 mouse melanoma cells
T1 sequence (Q64430 1-1491): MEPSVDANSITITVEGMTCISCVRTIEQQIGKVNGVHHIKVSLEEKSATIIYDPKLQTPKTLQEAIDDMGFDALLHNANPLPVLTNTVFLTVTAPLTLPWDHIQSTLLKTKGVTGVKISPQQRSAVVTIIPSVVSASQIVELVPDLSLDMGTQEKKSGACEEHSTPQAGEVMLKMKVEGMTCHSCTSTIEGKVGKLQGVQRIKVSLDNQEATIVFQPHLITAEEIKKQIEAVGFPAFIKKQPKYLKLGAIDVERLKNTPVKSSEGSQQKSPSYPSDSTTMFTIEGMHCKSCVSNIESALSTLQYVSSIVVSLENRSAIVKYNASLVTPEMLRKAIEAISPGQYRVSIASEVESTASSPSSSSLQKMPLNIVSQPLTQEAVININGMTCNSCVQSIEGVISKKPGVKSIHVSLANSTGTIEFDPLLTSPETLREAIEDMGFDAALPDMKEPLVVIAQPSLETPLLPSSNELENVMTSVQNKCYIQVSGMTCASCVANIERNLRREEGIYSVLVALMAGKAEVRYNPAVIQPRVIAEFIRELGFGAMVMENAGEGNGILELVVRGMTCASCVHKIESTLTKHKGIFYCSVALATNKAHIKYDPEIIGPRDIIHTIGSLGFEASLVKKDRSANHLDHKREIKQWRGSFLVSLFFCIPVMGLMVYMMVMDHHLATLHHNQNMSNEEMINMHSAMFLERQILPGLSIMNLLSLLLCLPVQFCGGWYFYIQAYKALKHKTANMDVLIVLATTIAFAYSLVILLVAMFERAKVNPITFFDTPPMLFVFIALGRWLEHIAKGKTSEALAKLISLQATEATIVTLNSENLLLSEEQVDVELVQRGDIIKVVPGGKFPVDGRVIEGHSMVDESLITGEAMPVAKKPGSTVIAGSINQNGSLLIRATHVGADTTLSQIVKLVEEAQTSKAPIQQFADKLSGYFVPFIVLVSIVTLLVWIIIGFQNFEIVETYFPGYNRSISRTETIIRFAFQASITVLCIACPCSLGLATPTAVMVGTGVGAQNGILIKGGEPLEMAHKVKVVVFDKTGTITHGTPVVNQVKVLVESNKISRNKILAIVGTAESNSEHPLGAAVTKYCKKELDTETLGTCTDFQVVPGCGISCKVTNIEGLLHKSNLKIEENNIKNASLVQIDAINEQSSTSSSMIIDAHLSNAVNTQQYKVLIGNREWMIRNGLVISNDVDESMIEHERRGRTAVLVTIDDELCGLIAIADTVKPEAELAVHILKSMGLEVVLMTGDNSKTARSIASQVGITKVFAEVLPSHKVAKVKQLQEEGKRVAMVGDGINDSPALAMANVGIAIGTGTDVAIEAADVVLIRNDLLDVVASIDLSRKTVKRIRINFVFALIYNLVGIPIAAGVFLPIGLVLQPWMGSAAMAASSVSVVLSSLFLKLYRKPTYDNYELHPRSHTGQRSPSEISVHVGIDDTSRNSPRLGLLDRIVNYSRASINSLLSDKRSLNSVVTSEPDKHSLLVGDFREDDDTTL
Method: Cells were incubated for 16 hours with […] omeprazole or the vehicle (DMSO) and then treated with Cu+2, or not treated, to determine if omeprazole could inhibit Cu+2-stimulated (CuCl2) ATP7A trafficking. […] ATP7A is seen as green following immunofluorescence protocols previously described (Petris et al., 1999), the Golgi stained red, and the nucleus stained blue. […]
This is consistent with the idea that omeprazole is metabolized to generate an inhibitory metabolite (such as hydroxy-omeprazole or perhaps the sulfonated metabolite) which then interacts with newly synthesized tyrosinase. This finding also is consistent with the hypothesis that omeprazole inhibits metallation of newly synthesized tyrosinase via ATP7A, rather than functioning as a direct inhibitor of tyrosinase per se; that is, a 72 hour incubation in omeprazole appears to be required so that preexisting tyrosinase can be turned over, allowing the inhibitory effect of omeprazole to be detected on newly synthesized tyrosinase.

SMILES: C[C@@H]1O[C@@H](O[C@H]2C[C@@H](O)[C@]3(CO)[C@H]4[C@H](O)C[C@]5(C)[C@@H](C6=CC(=O)OC6)CC[C@]5(O)[C@@H]4CC[C@]3(O)C2)[C@H](O)[C@H](O)[C@H]1O [ouabain]
- inhibition of melanogenesis [1]: does not inhibit melanogenesis

SMILES: COc1ccc2[nH]c([S+]([O-])Cc3ncc(C)c(OC)c3C)nc2c1 (centres unmarked) [omeprazole, 5- or 6-methoxy-2-{[(4-methoxy-3,5-dimethylpyridin-2-yl)methyl]sulfinyl}-1H-benzimidazole]
- cytotoxicity [2]: low cytotoxicity
- EC50 ([2]; Melanocyte, read-out: EC50 of melanogenesis inhibition): 15 µg/mL (≈ 43.4 µM)
- concentration at which effective [3]: 50 µg/mL
- tyrosinase mRNA levels [4]: no effect
- concentration that inhibits melanogenesis ([1]; cultured melanocytes): 5 to 50 µg/mL
- reorganization (stability) [5]: quickly reorganizes into the sulfonamide analog

- ATP7A trafficking without Cu+2 stimulation ([6]; SCH-28080, absence of Cu+2): no effect on ATP7A trafficking
SMILES: Cc1nc2c(OCc3ccccc3)cccn2c1CC#N [SCH-28080]
- inhibition of melanogenesis [1]: also inhibited melanogenesis
- inhibition of melanogenesis ([1]; listed as SCH-20808): strongly inhibited melanogenesis
- inhibition of Cu+2-stimulated ATP7A re-localization ([6]; 100 μM for 16 hours, then 10 μM Cu+2 for 3 hours): inhibition; also recorded: very potent inhibitor
